Measurements as given in patent publication US11883381B2, “ASH1L inhibitors and methods of treatment therewith” (The Regents of the University of Michigan, priority 2016, dated 2024).

Experiments:
[1] = target: T1, ASH1L SET-BAH construct (amino acids 2069-2833) (Homo sapiens, UniProt Q9NR48); assay: ASH1L histone methyltransferase assay (KMTase assay); type: biochemical; conditions: Table 6 section headings give the IC50 class; assay not given
T1 construct: ASH1L SET-BAH construct (amino acids 2069-2833) at 0.25 μM was incubated with 0.7 μM SAM; MOCR fusion (TEV-cleavable); made in house; host or cells: E. coli BL21(DE3) T1R
Method: ASH1L Histone Methyltransferase Assay (KMTase Assay)
The reactions were stopped by spotting 5 μL of the reaction mixture on P81 cellulose squares (Reaction Biology). The P81 squares were dried for 45 min and washed five times with 50 mM sodium bicarbonate (pH 9.0), 10 min per wash. The P81 squares were then dried for 1 h, added to 10 mL of Ultima Gold scintillation cocktail (PerkinElmer), and analyzed using a Beckman scintillation counter.

[2] = test system: Hoxa cluster, Meis1 genes in control cell line HM-2; assay: Quantitative RT-PCR of MLL fusion target genes, HM-2 control cell line; type: cell-based, mouse; conditions: normalized to β-actin
Method: (§1) Total RNA was extracted from cells using the RNeasy mini kit (QIAGEN), and then 100-2000 ng of total RNA was reverse transcribed using the High Capacity cDNA Reverse Transcription Kit (Applied Biosystems) according to the manufacturer's protocol. Real-time PCR was performed using a CFX96 Real-Time PCR Detection System (Biorad). TaqMan Gene Expression Master Mix and TaqMan Gene Expression Assays for mouse Gapdh (Mm99999915), mouse Ash1l (Mm00467322), mouse Hoxa7 (Mm00657963), mouse Hoxa9 (Mm00439364), mouse Hoxa10 (Mm00433966), mouse Meis1 (Mm00487664), and mouse B-actin (Mm00607939) were purchased from Thermo Fisher. Relative quantification of each gene transcript was carried out using the ΔΔCt method as described in the Biorad Real-Time PCR Applications Guide.

[3] = test system: MV4;11 cells (expressing MLL-AF4); assay: Cell viability (MTT) assay, MV4;11 cells; type: cell-based, human; conditions: 4 days of treatment
Method: (§2) MA9 (MLL-AF9 transformed), HM2 (Hoxa9/Meis1 transformed) murine bone marrow cells (BMC), MV4;11 and MOL13 human leukemia cells were plated at 1×10^5 cells/ml in 24-well plates, treated with 0.25% DMSO or compounds and cultured at 37° C. for 12 days. Every four days, the volume corresponding to 1×10^5 cells of DMSO-treated cells was spun down and resuspended in fresh media with fresh compound. At day 0 and each four day interval, 100 μl aliquots of the cell suspension were transferred to 96-well plates in quadruplicates. The quadruplicate samples were incubated for 4 days at 37° C., and then an MTT cell proliferation assay kit (Roche) was used to measure viable cells. Absorbance was read at 570 nm using a PHERAstar (BMG) microplate reader.

[4] = test system: HM-2 (Hoxa9/Meis1) negative control cell line; assay: Differentiation, HM-2 control cell line; type: cell-based, murine; conditions: negative control cell line HM-2
[5] = test system: MOLM13 cells expressing MLL-AF9; assay: Cell viability (MTT) assay, MOLM13 cells; type: cell-based, human; conditions: 4 days of treatment
Method: as §2

[6] = test system: murine bone marrow cells transformed with MLL-AF9 (MA9); assay: Cell viability (MTT) assay, MLL-AF9 transformed murine bone marrow cells; type: cell-based; conditions: 8 days of treatment
Method: as §2

MLL-AF9 cells = assay: Differentiation (cytospin/Wright-Giemsa staining), MLL-AF9 cells; type: cell-based, mouse
Method: Cytospin/Wrigtht-Giemsa Staining
1×10^5 MA9 mouse BMCs treated with compounds were harvested and placed in a Shandon EZ Single Cytofunnel (Thermo Fisher). Samples were centrifuged at 600 rpm for 5 min. The slides were air dried before staining with a Hema-3 kit (Thermo Fisher).

[7] = test system: MLL fusion target genes (Hoxa cluster, Meis1) in MLL-AF9 cells; assay: Quantitative RT-PCR of MLL fusion target genes, MLL-AF9 cells; type: cell-based, mouse; conditions: for Expression of MLL fusion target genes (Hoxa cluster, Meis1): MLL-AF9 cells, normalized to β-actin
Method: as §1

ASH1L = target: T2, ASH1L (Homo sapiens, UniProt Q9NR48); assay: ASH1L degradation in HeLa cells; type: cell-based; conditions: 0.05-50 μM
T2 construct: endogenous in cells; host or cells: HeLa

[8] = test system: human acute leukemia cells with various MLL translocations; assay: Cell proliferation in a panel of human acute leukemia cells; type: cell-based
Method: as §2

SMILES: NC(=S)c1cccc(-c2cn(CC(CF)CF)c3cc(NC(=O)c4cc[nH]c4)ccc23)c1 [Compound 137]
- IC50 [1]: < 20 µM

SMILES: NC(=S)c1cccc(-c2cn(CC(CF)CF)c3cc(N)ccc23)c1 [Compound 126, 3-(6-amino-1-(3-fluoro-2-(fluoromethyl)propyl)-1H-indol-3-yl)benzothioamide]
- Expression of MLL fusion target genes (Hoxa cluster, Meis1) [2]: has no effect on expression
- Inhibition of cell proliferation [3]: Inhibition of cell proliferation
- Differentiation of cells [4]: but not in negative control cell line HM-2
- Inhibition of cell proliferation [5]: Inhibition of cell proliferation
- Inhibition of cell proliferation [6]: Inhibition of cell proliferation
- Differentiation of cells (MLL-AF9 cells): induces differentiation
- Expression of MLL fusion target genes (Hoxa cluster, Meis1) [7]: downregulates expression

SMILES: NC(=S)c1cccc(-c2cn(CC(CO)(C(F)F)C(F)F)c3cc(CO)ccc23)c1 [Compound 200]
- IC50 [1]: < 20 µM

SMILES: NC(=S)c1cccc(-c2cn(CC(CO)(C(F)F)C(F)F)c3cc(C(O)CF)ccc23)c1 (stereo not drawn) [Compound 209]
- IC50 [1]: < 20 µM

SMILES: NC(=S)c1cccc(-c2cn(C(C(F)(F)F)C(F)(F)F)c3cc(CO)ccc23)c1 [Compound 207]
- IC50 [1]: < 20 µM

SMILES: NC(=S)c1cccc(-c2cccc3[nH]ccc23)c1 [Compound 34]
- IC50 [1]: > 100 µM

SMILES: NC(=S)c1ccc(O)c(-c2cccc3[nH]ncc23)c1 [Compound 35]
- IC50 [1]: > 100 µM

SMILES: NC(=S)c1cccc(-c2cn(CCCC(F)(F)F)c3cc(CNCc4ccccc4)ccc23)c1 [Compound 120]
- IC50 [1]: < 20 µM

SMILES: CC(=O)Nc1ccc2c(-c3cccc(C(N)=S)c3)cn(CC(CF)CF)c2c1 [Compound 136]
- IC50 [1]: < 20 µM

SMILES: NC(=S)c1cccc(-c2cn(CC(CF)CF)c3cc(NC(=O)CCOCCOCCOCCOc4cccc5c4C(=O)N(C4CCC(=O)NC4=O)C5=O)ccc23)c1 (stereo not drawn) [Compound 301]
- IC50 [1]: < 20 µM
- Degradation of ASH1L (ASH1L): Degradation of ASH1L induced

SMILES: NC(=S)c1cccc(-c2cn(CCCC(F)(F)F)c3cc(-c4ccn[nH]4)ccc23)c1 [Compound 260]
- Expression of MLL fusion target genes (Hoxa9, Hoxa10 and Meis1) ([7]; MLL-AF9 transformed murine leukemia cells): downregulates expression
- Cell proliferation [8]: inhibits cell proliferation

SMILES: NC(=S)c1cccc(-c2cn(CC(CF)CF)c3cc(CNC(=O)c4cnc[nH]4)ccc23)c1 [Compound 203]
- IC50 [1]: < 20 µM

SMILES: NC(=O)NCc1ccc2c(-c3cccc(C(N)=S)c3)cn(CC(CF)CF)c2c1 [Compound 204]
- IC50 [1]: < 20 µM

SMILES: NC(=S)c1cccc(-c2cn(CC(CF)CF)c3cc(CNC(=O)CC(F)(F)F)ccc23)c1 [Compound 206]
- IC50 [1]: < 20 µM

SMILES: NC(=S)c1cccc(-c2c[nH]c3ccccc23)c1 [Compound 89]
- IC50 [1]: 20 to 100 µM

SMILES: NC(=S)c1cccc(-c2cn(-c3ccc[nH]3)c3cc(CO)ccc23)c1 [Compound 220]
- IC50 [1]: < 20 µM

SMILES: NC(=S)c1cccc(-c2c[nH]c3ccc(O)cc23)c1 [Compound 69]
- Expression of MLL fusion target genes (Hoxa cluster, Meis1) [2]: does not affect gene expression
- Expression of MLL fusion target genes (Hoxa cluster, Meis1) [7]: does not affect gene expression

SMILES: NC(=S)c1cccc(-c2cn(CC(CF)CF)c3cc(C(O)CC(F)(F)F)ccc23)c1 (stereo not drawn) [Compound 202]
- IC50 [1]: < 20 µM
